Measurements taken from patent US20250368628A1, “METHODS AND COMPOUNDS FOR MODULATING INHERITED GENETIC DISEASES” (Design Therapeutics, Inc., priority 2022, published 2025).

System: Myotonic Dystrophy 1 affected patient fibroblasts (Coriel GM04602; 1600 CTG repeats)
Test: DM1 foci reduction assay (EC50 assay; CAG10-Cy3 FISH, foci per nucleus)
Format: cell-based
Conditions: Homo sapiens, Fibroblast; DM1 patient fibroblasts, 48 h treatment, foci per nucleus; read-out: DM1 EC50, 48 h
Protocol: DM1 Foci Reduction Assay Methods
Myotonic Dystrophy 1 affected patient fibroblasts (Coriel GM04602; 1600 CTG repeats) and wild type fibroblasts (Coriell GM07492; control line) were cultured separately in Gibco DMEM (1×)+4.5 g/L D-Glucose+L-Glutamine+[…] Sodium Pyruvate, supplemented with 10% FBS and 1× Pen/Strep. Cells were maintained in an incubator at 37° C. and 5% CO2 with media refreshed every 48-72 hours.
At 90-95% confluency, both cell lines were harvested using Trypl-E then pelleted at 500×g for 5 minutes and were resuspended in fresh media. DM1 fibroblasts were seeded in Agilent 96 well black plates at a density of 5,000 cells/well in 200 μL media; and 8 wells were reserved for control fibroblasts. Plates were returned to incubator for 24 hours at 37° C. and 5% CO2.
Compounds were diluted from 10 mM stock to 1 mM in DMSO and then diluted once more to 6 μM (2× concentration) in media. Media was removed from all plates and cells were replenished with 100 μL media. Cells were treated in 8-point dose response, 1:3 fold dilution, 3 μM top dose via addition of 100 μL of 6 μM (2× concentration) compound to the 100 μL media with cells. Plates were returned to incubator for 48 hours at 37° C. and 5% CO2.
Following treatment, compounds were removed, and plates were washed with PBS, then cells were fixed in 75 μL 4% PFA solution for 20 minutes at room temperature. Plates were washed twice with PBS and twice with cold 70% ethanol before permeabilization with 250 μL cold 70% ethanol for 24-72 hours at −20° C.
After permeabilization, plates were washed once with a 30% formamide and 2×SSC buffer and rehydrated in that buffer for 15 minutes at room temperature. Cells were incubated overnight at 37° C. in 75 μL of a hybridization solution containing 30% formamide, 2×SSC, 25 mg/mL dextran sulfate, 2.5 mg/mL BSA, 0.2 μg/mL Herring sperm DNA, 2 mM vanadyl-ribonucleoside complex, and 5 nM CAG10-Cy3 probe.
Plates were washed once with 30% formamide in 2×SSC buffer, then twice with the buffer for 30 minutes at 37° C., 300 RPM in an incubating plate shaker. Cells were stained with 75 μL of 2.5 μg/mL DAPI in PBS for 5 minutes at room temperature. Plates were then washed twice with PBS and stored in 250 μL PBS. Plates were sealed with adhesive foil and wiped down with 70% ethanol.
Cells were imaged on a Cytation5 with a 20× objective sampling from 4 areas of each well. Nuclei were captured under DAPI channel and foci under RFP channel. Plates were analyzed on an average foci per nucleus per well basis.

SMILES	EC50 [nM]
CCN(CC)CCCC[C@H](NC(=O)C(C)C)C(=O)NCCOCCOCCOCCOCCOCCNC(=O)CCNC(=O)c1nc(NC(=O)c2cc(NC(=O)CCNC(=O)c3nc(NC(=O)CCCNC(=O)c4cc(NC(=O)c5nc(NC(=O)CCNC(=O)c6cc(NC(=O)c7nccn7C)cn6C)cn5C)cn4C)cn3C)cn2C)cn1C [Compound B-89]	> 1000
CCN(CC)CCCC[C@H](NC(=O)c1ccccc1)C(=O)NCCOCCOCCOCCOCCOCCNC(=O)CCNC(=O)c1nc(NC(=O)c2cc(NC(=O)CCNC(=O)c3nc(NC(=O)CCCNC(=O)c4cc(NC(=O)c5nc(NC(=O)CCNC(=O)c6cc(NC(=O)c7nccn7C)cn6C)cn5C)cn4C)cn3C)cn2C)cn1C [Compound B-91]	500 to 1000
CCN(CC)CCCC[C@H](NC(=O)c1ccncc1)C(=O)NCCOCCOCCOCCOCCOCCNC(=O)CCNC(=O)c1nc(NC(=O)c2cc(NC(=O)CCNC(=O)c3nc(NC(=O)CCCNC(=O)c4cc(NC(=O)c5nc(NC(=O)CCNC(=O)c6cc(NC(=O)c7nccn7C)cn6C)cn5C)cn4C)cn3C)cn2C)cn1C [Compound B-93]	> 1000
CCN(CC)CCCC[C@H](NC(=O)C1CCN(C)CC1)C(=O)NCCOCCOCCOCCOCCOCCNC(=O)CCNC(=O)c1nc(NC(=O)c2cc(NC(=O)CCNC(=O)c3nc(NC(=O)CCCNC(=O)c4cc(NC(=O)c5nc(NC(=O)CCNC(=O)c6cc(NC(=O)c7nccn7C)cn6C)cn5C)cn4C)cn3C)cn2C)cn1C [Compound B-96]	100 to 500
CCN(CC)CCCC[C@@H](NC(C)=O)C(=O)NCCOCCOCCNC(=O)CCNC(=O)c1nc(NC(=O)CCNC(=O)c2cc(NC(=O)c3nc(NC(=O)CCCNC(=O)c4cc(NC(=O)c5nc(NC(=O)CCNC(=O)c6cc(NC(C)c7nccn7C)cn6C)cn5C)cn4C)cn3C)cn2C)cn1C (stereo partly shown) [Compound B-97]	100 to 500
CCN(CC)CCCC[C@@H](NC(C)=O)C(=O)NCCNC(=O)CCNC(=O)c1nc(NC(=O)CCNC(=O)c2cc(NC(=O)c3nc(NC(=O)CCCNC(=O)c4cc(NC(=O)c5nc(NC(=O)CCNC(=O)c6cc(NC(C)c7nccn7C)cn6C)cn5C)cn4C)cn3C)cn2C)cn1C (stereo partly shown) [Compound B-98]	> 1000
CCN(CC)CCCC[C@@H](NC(=O)C1CCNCC1)C(=O)NCCOCCOCCOCCOCCOCCNC(=O)CCNC(=O)c1nc(NC(=O)c2cc(NC(=O)CCNC(=O)c3nc(NC(=O)CCCNC(=O)c4cc(NC(=O)c5nc(NC(=O)CCNC(=O)c6cc(NC(=O)c7nccn7C)cn6C)cn5C)cn4C)cn3C)cn2C)cn1C [Compound B-101]	> 1000
CCN(CC)CCCC[C@@H](NC(C)=O)C(=O)NCCOCCOCCNC(=O)CCNC(=O)c1nc(NC(=O)c2cc(NC(=O)CCNC(=O)c3nc(NC(=O)CCCNC(=O)c4cc(NC(=O)c5nc(NC(=O)CCNC(=O)c6cc(NC(=O)c7nccn7C)cn6C)cn5C)cn4C)cn3C)cn2C)cn1C [Compound B-102]	500 to 1000
CCN(CC)CCCC[C@@H](NC(C)=O)C(=O)NCCNC(=O)CCNC(=O)c1nc(NC(=O)c2cc(NC(=O)CCNC(=O)c3nc(NC(=O)CCCNC(=O)c4cc(NC(=O)c5nc(NC(=O)CCNC(=O)c6cc(NC(=O)c7nccn7C)cn6C)cn5C)cn4C)cn3C)cn2C)cn1C [Compound B-103]	> 1000
CCCN(CCC)C(=O)c1nc(NC(=O)c2cc(NC(=O)CCNC(=O)c3nc(NC(=O)CCCNC(=O)c4cc(NC(=O)c5nc(NC(=O)CCNC(=O)c6cc(NC(=O)c7nccn7C)cn6C)cn5C)cn4C)cn3C)cn2C)cn1C [Compound B-104]	> 1000
Cn1cc(NC(=O)c2nc(NC(=O)CCNC(=O)c3cc(NC(=O)c4nccn4C)cn3C)cn2C)cc1C(=O)NCCCC(=O)Nc1cn(C)c(C(=O)NCCC(=O)Nc2cc(C(=O)Nc3cn(C)c(C(=O)N4CCC(N5CCNCC5)CC4)n3)n(C)c2)n1 [Compound B-106]	> 1000
Cn1cc(NC(=O)c2nc(NC(=O)CCNC(=O)c3cc(NC(=O)c4nccn4C)cn3C)cn2C)cc1C(=O)NCCCC(=O)Nc1cn(C)c(C(=O)NCCC(=O)Nc2cc(C(=O)Nc3cn(C)c(C(=O)NCCC(=O)NCC#N)n3)n(C)c2)n1 [Compound B-112]	500 to 1000
Cn1cc(NC(=O)c2nc(NC(=O)CCNC(=O)c3cc(NC(=O)c4nccn4C)cn3C)cn2C)cc1C(=O)NCCCC(=O)Nc1cn(C)c(C(=O)NCCC(=O)Nc2cc(C(=O)Nc3cn(C)c(C(=O)NCCC(=O)N4CCN(CC5CCNCC5)CC4)n3)n(C)c2)n1 [Compound B-114]	500 to 1000
CN1CCC(CN2CCN(C(=O)CCNC(=O)c3nc(NC(=O)c4cc(NC(=O)CCNC(=O)c5nc(NC(=O)CCCNC(=O)c6cc(NC(=O)c7nc(NC(=O)CCNC(=O)c8cc(NC(=O)c9nccn9C)cn8C)cn7C)cn6C)cn5C)cn4C)cn3C)CC2)CC1 [Compound B-116]	> 1000
CN1CCN(CC2CCN(C(=O)CCNC(=O)c3nc(NC(=O)c4cc(NC(=O)CCNC(=O)c5nc(NC(=O)CCCNC(=O)c6cc(NC(=O)c7nc(NC(=O)CCNC(=O)c8cc(NC(=O)c9nccn9C)cn8C)cn7C)cn6C)cn5C)cn4C)cn3C)CC2)CC1 [Compound B-129]	100 to 500
CC(=O)N1CCN(C2CCN(C(=O)CCNC(=O)c3nc(NC(=O)c4cc(NC(=O)CCNC(=O)c5nc(NC(=O)CCCNC(=O)c6cc(NC(=O)c7nc(NC(=O)CCNC(=O)c8cc(NC(=O)c9nccn9C)cn8C)cn7C)cn6C)cn5C)cn4C)cn3C)CC2)CC1 [Compound B-130]	100 to 500
CN(C)c1ccc(C#CC#CCNC(=O)CCNC(=O)c2nc(NC(=O)c3cc(NC(=O)CCNC(=O)c4nc(NC(=O)CCCNC(=O)c5cc(NC(=O)c6nc(NC(=O)CCNC(=O)c7cc(NC(=O)c8nccn8C)cn7C)cn6C)cn5C)cn4C)cn3C)cn2C)cc1 [Compound B-133]	> 1000
Cn1cc(NC(=O)c2nc(NC(=O)CCNC(=O)c3cc(NC(=O)c4nccn4C)cn3C)cn2C)cc1C(=O)NCCCC(=O)Nc1cn(C)c(C(=O)NCCC(=O)Nc2cc(C(=O)Nc3cn(C)c(C(=O)NCCC(=O)NCC#CC#CC4CCNCC4)n3)n(C)c2)n1 [Compound B-137, 1-methyl-4-(3-{[1-methyl-4-(1-methylimidazole-2-amido)pyrrol-2-yl]formamido}propanamido)-N-(1-methyl-5-{[3-({1-methyl-2-[(2-{[1-methyl-5-({1-methyl-2-[(2-{[5-(piperidin-4-yl)penta-2,4-diyn-1-yl]carbamoyl}ethyl)carbamoyl]imidazol-4-yl}carbamoyl)pyrrol-3-yl]carbamoyl}ethyl)carbamoyl]imidazol-4-yl}carbamoyl)propyl]carbamoyl}pyrrol-3-yl)imidazole-2-carboxamide]	> 1000
CN1CCC(C#CC#CCNC(=O)CCNC(=O)c2nc(NC(=O)c3cc(NC(=O)CCNC(=O)c4nc(NC(=O)CCCNC(=O)c5cc(NC(=O)c6nc(NC(=O)CCNC(=O)c7cc(NC(=O)c8nccn8C)cn7C)cn6C)cn5C)cn4C)cn3C)cn2C)CC1 [Compound B-138]	> 1000
CN(C)CC#CC#Cc1ccc(NC(=O)CCNC(=O)c2nc(NC(=O)c3cc(NC(=O)CCNC(=O)c4nc(NC(=O)CCCNC(=O)c5cc(NC(=O)c6nc(NC(=O)CCNC(=O)c7cc(NC(=O)c8nccn8C)cn7C)cn6C)cn5C)cn4C)cn3C)cn2C)cc1 [Compound B-139]	> 1000
Cn1cc(NC(=O)c2nc(NC(=O)CCNC(=O)c3cc(NC(=O)c4nccn4C)cn3C)cn2C)cc1C(=O)NCCCC(=O)Nc1cn(C)c(C(=O)NCCC(=O)Nc2cc(C(=O)Nc3cn(C)c(C(=O)NCCC(=O)NC4CCNCC4)n3)n(C)c2)n1 [Compound B-140]	> 1000
CC(=O)N1CCC(NC(=O)CCNC(=O)c2nc(NC(=O)c3cc(NC(=O)CCNC(=O)c4nc(NC(=O)CCCNC(=O)c5cc(NC(=O)c6nc(NC(=O)CCNC(=O)c7cc(NC(=O)c8nccn8C)cn7C)cn6C)cn5C)cn4C)cn3C)cn2C)CC1 [Compound B-141]	> 1000
CCN(CC)CCCC[C@@H](NC(C)=O)C(=O)Nc1ccc(OCCOCCOCCOCCOCCOCCOCCNC(=O)CCNC(=O)c2nc(NC(=O)c3cc(NC(=O)CCNC(=O)c4nc(NC(=O)CCCNC(=O)c5cc(NC(=O)c6nc(NC(=O)CCNC(=O)c7cc(NC(=O)c8nccn8C)cn7C)cn6C)cn5C)cn4C)cn3C)cn2C)cc1 [Compound B-145]	500 to 1000
Cn1cc(NC(=O)c2nc(NC(=O)CCNC(=O)c3cc(NC(=O)c4nccn4C)cn3C)cn2C)cc1C(=O)NCCCC(=O)Nc1cn(C)c(C(=O)NCCC(=O)Nc2cc(C(=O)Nc3cn(C)c(C(=O)NCCC(=O)NCCOCCN4CCN(C5CCN(c6ccc(N)cc6)CC5)CC4)n3)n(C)c2)n1 [Compound B-155]	> 1000
Cn1cc(NC(=O)c2nc(NC(=O)CCNC(=O)c3cc(NC(=O)c4nccn4C)cn3C)cn2C)cc1C(=O)NCCCC(=O)Nc1cn(C)c(C(=O)NCCC(=O)Nc2cc(C(=O)Nc3cn(C)c(C(=O)NCCC(=O)N4CCN(C5CCN(c6ccc(N)cc6)CC5)CC4)n3)n(C)c2)n1 [Compound B-156]	> 1000
